# Experimental data from ChEMBL document CHEMBL1131593, “Correlation of human jejunal permeability (in vivo) of drugs with experimentally and theoretically derived parameters. A multivariate data analysis approach” (J Med Chem, 1998).
# “And” between values parts separate entries of the source, which are not always exact repeats. Identical values can stand only once.
# Legend:
# physchem [1] = conditions: octanol/water
# physchem [2] = conditions: octanol/water, pH 5.5
# [3] = octanol/water
# physchem [4] = conditions: octanol/water, pH 6.5
# physchem [5] = conditions: octanol/water, pH 7.4
# [6] = Distribution coefficient in octanol/water at pH 5.5; format: physicochemical; conditions: read-out: Log D5.5
# [7] = Distribution coefficient in octanol/water at pH 6.5; format: physicochemical; conditions: read-out: Log D6.5
# [8] = Partition coefficient value and its ionic species.; format: ADME; conditions: octanol/water
# physchem [9] = assay: physchem
# [10] = Distribution coefficient in octanol/water at pH 7.4; format: physicochemical; conditions: read-out: Log D7.4
# [11] = pKa value of the compound. (extrapolated values); format: physicochemical
# physchem [12] = assay: physchem; remark: listed apart in the source
# [13] = octanol/water; remark: listed apart in the source
# physchem [14] = conditions: octanol/water; remark: listed apart in the source
SMILES,logP (physchem [1]),GOF [3],logD [6],logD [7],Log Pion [8],logD [10],further results
C[C@H](C(=O)O)c1cccc(C(=O)c2ccccc2)c1 [DEXKETOPROFEN],3.37,1.1,–,–,–,–,logD (physchem [2]): 1.8; logD (physchem [4]): 0.8; logD (physchem [5]): 0.1
N[C@@H](Cc1ccc(O)c(O)c1)C(=O)O [LEVODOPA],< -2,1.4,< -2,< -2,< -2,< -2,pKa (physchem [9]): 12.7
C[C@](N)(Cc1ccc(O)c(O)c1)C(=O)O [METHYLDOPA],< -2,1.3,< -2,< -2,< -2,< -2,pKa (physchem [9]): 12.7
CC(C)(C)NC[C@H](O)c1cc(O)cc(O)c1 [TERBUTALINE],-0.09,3.3,-1.3,-1.3,–,-1.1,pKa (physchem [9]): 11.1
C[C@H](N[C@@H](CCc1ccccc1)C(=O)O)C(=O)N1CCC[C@H]1C(=O)O [ENALAPRILAT ANHYDROUS],-0.13,1.6,-1,-1,-1.07 and -0.99,-1,pKa [11]: 7.84
CC(C)NC[C@H](O)COc1ccc(CC(N)=O)cc1 [ATENOLOL],–,1.6,–,–,–,–,–
NS(=O)(=O)c1cc2c(cc1Cl)NCNS2(=O)=O [HYDROCHLOROTHIAZIDE],-0.17,1.6,–,–,–,–,–
CC(C)C[C@H](N)C(=O)O [LEUCINE],-1.55,2.6,-1.6,-1.6,-2.07,-1.6,pKa [11]: 9.61
CC1(C)S[C@@H]2[C@H](NC(=O)[C@H](N)c3ccc(O)cc3)C(=O)N2[C@H]1C(=O)O [AMOXICILLIN],–,3.1,–,–,–,–,pKa (physchem [12]): 9.61; logD (physchem [2]): -1.7; logD (physchem [4]): -1.7; logP [13]: -1.71; logD (physchem [5]): -1.6
COCCc1ccc(OC[C@@H](O)CNC(C)C)cc1 [(S)-METOPROLOL],2.07,0.9,-0.6,-0.5,-0.63,0,–
CC(C)n1c(/C=C/[C@@H](O)C[C@@H](O)CC(=O)O)c(-c2ccc(F)cc2)c2ccccc21 [FLUVASTATIN SODIUM],4.17,1.2,–,–,–,–,pKa (physchem [12]): 4.31; logD (physchem [2]): 3; logPion (physchem [14]): 1.12; logD (physchem [4]): 2; logD (physchem [5]): 1.4
Cc1cc(=O)n(-c2ccccc2)n1C [ANTIPYRINE],–,1.2,–,–,–,–,pKa (physchem [12]): 1.44
CN1CC(=O)NC1=N [CREATININE],< -2,0.5,< -2,< -2,–,< -2,pKa [11]: 4.85
NS(=O)(=O)c1cc(C(=O)O)c(NCc2ccco2)cc1Cl [FUROSEMIDE],–,1.7,–,–,–,–,–
CC(C)NC[C@H](O)COc1cccc2ccccc12.Cl [PROPRANOLOL HYDROCHLORIDE],–,0.9,–,–,–,–,–
